From patent US20260098008A1, “COVALENT, CHEMOGENETIC ACTIVATORS FOR K2P POTASSIUM CHANNELS AND USES THEREOF” (THE REGENTS OF THE UNIVERSITY OF CALIFORNIA, priority 2022, published 2026)
Positions count from the first letter of the chain named.

Tests used:
[1] = target: T1, TREK-1^CG* (Mus musculus, UniProt P97438, S146C); experiment: Whole-cell patch clamp in transfected HEK293 cells; type: cell-based; conditions: 20 μM; for Fold-activation (I activator/I control): whole-cell currents
T1 construct: expressed in transfected cells; host or cells: HEK293 (pIRES2-EGFP vector)
T1 sequence (P97438 1-411 isoform P97438-2 S131C): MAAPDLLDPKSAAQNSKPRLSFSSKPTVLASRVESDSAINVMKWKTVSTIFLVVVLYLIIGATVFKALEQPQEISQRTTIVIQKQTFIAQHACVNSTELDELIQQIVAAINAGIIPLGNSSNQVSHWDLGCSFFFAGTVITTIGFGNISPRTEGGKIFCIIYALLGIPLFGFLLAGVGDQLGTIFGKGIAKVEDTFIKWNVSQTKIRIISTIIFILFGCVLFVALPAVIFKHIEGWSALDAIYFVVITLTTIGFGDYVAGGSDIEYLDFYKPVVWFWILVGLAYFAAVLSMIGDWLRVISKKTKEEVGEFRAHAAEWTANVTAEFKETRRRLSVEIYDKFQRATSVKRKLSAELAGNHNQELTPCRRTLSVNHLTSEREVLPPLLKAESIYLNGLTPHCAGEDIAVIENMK
Excerpt: (§1) Mouse K2P2.1 (TREK-1) (Genbank accession number: NP_034737.2), mouse K2P10.1 (TREK-2) (NM_001316665.1), mouse K2P4.1 (TRAAK) (NM_008431.3), human K2P4.1 (TRAAK) (NM_033310.2) and mouse K2P18.1(TRESK) (NM_207261.3) were used for this study. Point mutations were introduced by site-directed mutagenesis using custom primers and confirmed by sequencing before use. For studies using Xenopus oocytes, K2P channels were subcloned into a previously reported pGEMHE/pMO vector (46). For expression in HEK293 cells, mouse K2P2.1 (TREK-1) and mutants were expressed from a previously described pIRES2-EGFP vector in HEK293 cells (46,47). K2P2.1 (TREK-1) tandems were constructed by connecting the open reading frames for the individual subunits with a linker encoding the […] (SEQ ID NO: 19) sequence. Tandems used for HEK293 cells included an N-terminal HA tag ([…] (SEQ ID NO: 20)) on the first subunit.
(§2) 50% confluent cells were co-transfected (in 35-mm diameter wells) with 10-100 ng of the K2P2.1 plasmid and 400 ng of an eGFP plasmid (for visualization) using LipofectAMINE 2000 (Invitrogen) for 24 h, after which the cells were either plated onto coverslips or the media exchanged with fresh media. Cells were plated onto Matrigel coated coverslips (BD Biosciences) 1-2 hours before experiments.
(§3) Whole-cell patch-clamp experiments with K2P2.1(TREK-1) and mutants were carried out 24-48 h after transfection. Acquisition and analysis for voltage-clamp experiments were performed using pCLAMP10 and an Axopatch 200B amplifier (Molecular Devices). Current-clamp experiments were acquired using an […] amplifier (Molecular Devices). Pipettes were pulled using a Flaming/Brown micropipette puller (P-97, Sutter Instruments) and flame-polished using a MF-830 microforge (Narishige). Electrode resistance after filling with pipette internal solution ranged from 2 to 5 MΩ. Currents were low-pass filtered at 2 kHz and sampled at 10 kHz. Pipette solution contained the following: 145 mM KCl, 3 mM MgCl2, 5 mM EGTA and 20 mM HEPES (pH 7.2 with KOH). Bath solution contained the following: 145 mM NaCl, 5 mM KCl, 1 mM CaCl2, 3 mM MgCl2 and 20 mM HEPES (pH 7.4 with NaOH). K2P2.1 currents were elicited by a 1 s ramp from −100 to +50 mV from a −80 mV holding potential. Current-clamp recordings were taken with no holding current (I=0). Only K2P2.1(TREK-1)^CG* whole-cell patches with basal currents between […] at 0 mV were used Criteria for A286F K2P2.1(TREK-1)^CG*. ML335 or CAT335 were applied at 20 μM in bath solution and were perfused at 3 ml min^−1 until potentiation stabilized (1-3 min). Data were analyzed using Clampfit 11 and GraphPad Prism 9.

[2] = target: T2, K2P2.1 (TREK-1) (Mus musculus, UniProt P97438); experiment: Whole-cell patch clamp in transfected HEK293 cells; type: cell-based; conditions: 20 μM; for Fold-activation (I activator/I control): whole-cell currents
T2 construct: expressed in transfected cells; host or cells: Xenopus laevis oocytes injected with mRNA (pGEMHE/pMO vector)
T2 sequence (P97438 1-411 isoform P97438-2): T1 sequence (P97438 1-411 isoform P97438-2 S131C) with C131S
Excerpt: as §1, §2, §3

| Structure (SMILES) | Reversibility of activation on washout [1] | Fold-activation (I activator/I control) [1] [fold] | Reversibility of activation on washout [2] | Fold-activation (I activator/I control) [2] [fold] |
| --- | --- | --- | --- | --- |
| O=C(NCc1ccc(Cl)cc1Cl)c1ccc(N2C(=O)C=CC2=O)cc1 [CAT335] | irreversible | 8.5 ± 1.5 | fully reversible | 1.9 ± 0.2 |
| CS(=O)(=O)Nc1ccc(C(=O)NCc2ccc(Cl)cc2Cl)cc1 [ML335, reference compound] | – | 3.7 ± 0.4 | – | 6.2 ± 0.5 |
